Usually melting point stands for the temperature of the solid-liquid transition. As usually defined, the IC50 is the point on the concentration scale where inhibition reaches its midpoint.

Where a name gives a salt, the structure may show the parent alone.

The results in this text go back to patent US7501412B2, “Isoquinoline compounds and medicinal use thereof” (Mitsubishi Tanabe Pharma Corporation, priority 2002, dated 2009).

For data set [1], the target named is T1, recombinant human PARP (Homo sapiens, UniProt P09874).
T1 construct: purchased Trevigen 4667-02X
T1 sequence (P09874 whole entry): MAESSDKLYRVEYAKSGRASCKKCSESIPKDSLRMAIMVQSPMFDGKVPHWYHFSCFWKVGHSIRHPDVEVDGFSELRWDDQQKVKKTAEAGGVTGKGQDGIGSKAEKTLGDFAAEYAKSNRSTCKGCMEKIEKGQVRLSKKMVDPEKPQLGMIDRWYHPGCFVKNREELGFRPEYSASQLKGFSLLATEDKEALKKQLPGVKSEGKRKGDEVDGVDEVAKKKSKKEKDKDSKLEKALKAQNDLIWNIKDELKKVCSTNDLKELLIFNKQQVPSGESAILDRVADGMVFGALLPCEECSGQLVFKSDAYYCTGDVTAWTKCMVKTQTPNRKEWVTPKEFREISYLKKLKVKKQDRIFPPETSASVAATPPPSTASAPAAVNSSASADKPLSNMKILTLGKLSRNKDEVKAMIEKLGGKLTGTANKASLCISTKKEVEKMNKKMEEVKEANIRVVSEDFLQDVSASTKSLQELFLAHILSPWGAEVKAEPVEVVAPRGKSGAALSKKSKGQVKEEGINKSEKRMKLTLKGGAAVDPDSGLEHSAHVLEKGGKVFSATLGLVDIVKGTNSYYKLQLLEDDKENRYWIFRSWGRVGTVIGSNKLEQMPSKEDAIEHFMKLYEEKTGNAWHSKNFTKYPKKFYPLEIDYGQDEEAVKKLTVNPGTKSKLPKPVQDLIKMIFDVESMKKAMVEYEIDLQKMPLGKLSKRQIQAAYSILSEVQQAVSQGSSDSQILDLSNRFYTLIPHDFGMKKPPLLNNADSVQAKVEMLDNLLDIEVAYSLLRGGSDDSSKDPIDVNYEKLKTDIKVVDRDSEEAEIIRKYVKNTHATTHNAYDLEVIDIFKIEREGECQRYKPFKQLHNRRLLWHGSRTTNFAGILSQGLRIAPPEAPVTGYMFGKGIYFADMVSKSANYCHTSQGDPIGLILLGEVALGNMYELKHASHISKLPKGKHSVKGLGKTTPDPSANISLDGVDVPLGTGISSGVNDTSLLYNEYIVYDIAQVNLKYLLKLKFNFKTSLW
Description: PARP enzyme activity inhibitory action. Format: biochemical. The note with it: recombinant human PARP (Trevigen), 3H-NAD, activated DNA, 25° C. for 15 min. On the procedure: After incubation at 25° C. for 15 min., the reaction was stopped by adding 20% trichloroacetic acid, and the resulting acid insoluble fraction was adsorbed to a GF/B filter. Then, the filter was washed several times with 5% trichloroacetic acid, and the radioactivity on the filter was measured with a liquid scintillation counter.

Consider `CN1CCC(c2c[nH]c(=O)c3c(F)cccc23)CC1`, for which the melting point lay in the range of 227.6 to 229.3 °C.
`Cc1ccc2c(C3CCN(C)CC3)c[nH]c(=O)c2c1` displayed a melting point of 212.8 to 214.8 °C.
The same measure, in the same setting: the figure for `CN1CCC(c2c[nH]c(=O)c3cc(C(F)(F)F)ccc23)CC1` (as salt: hydrochloride) [Example 198, 4-(1-Methylpiperidin-4-yl)-7-trifluoromethyl-2H-isoquinolin-1-one] is 231.8 to 234.6 °C.
With `O=C1NCCc2c(OCCCCN3CCCCC3)cccc21` [DPQ, 3,4-dihydro-5-[4-(1-piperidinyl)-butoxy]-1(2H)-isoquinolinone, reference compound], the IC50 in data set [1] came out at 1000 nM.
On to `CN(C)CC(=O)c1c(N)[nH]c(=O)c2ccccc12` [Ex. 1, 3-amino-4-(2-(dimethylamino)acetyl)-2H-isoquinolin-1-one hydrochloride monohydrate], for which, in data set [1], the half-inhibitory concentration (IC50) came to 43 nM.
Turning to `Cn1nc(CN2CCCC2)c2c3ccccc3c(=O)[nH]c21` [Ex. 7, 3-methyl-1-(pyrrolidin-1-yl)methyl-3H-pyrazolo[3,4-c]isoquinolin-5(4H)-one], the half-maximal inhibitory concentration (IC50) in data set [1] was 32 nM.
On the same count and under the same terms, the figure for `CN(C)CC(=O)c1c(N)[nH]c(=O)c2cc(F)ccc12` [Ex. 14, 3-Amino-4-(2-(dimethylamino)acetyl)-7-fluoro-2H-isoquinolin-1-one hydrochloride] is 40 nM; for `CN1CCN(Cc2nn(C)c3[nH]c(=O)c4ccccc4c23)CC1` [Ex. 21, 3-Methyl-1-((4-methylpiperazin-1-yl)methyl)-3H-pyrazolo[3,4-c]isoquinolin-5(4H)-one] it is 143 nM.
In the case of `Cc1[nH]c(=O)c2ccccc2c1CN1CCCC1` [Ex. 25, 3-Methyl-4-(pyrrolidin-1-yl)methyl-2H-isoquinolin-1-one], the half-maximal inhibitory concentration (IC50) in data set [1] was determined as 67 nM.
`Cc1[nH]c(=O)c2cc(Cl)ccc2c1CN1CCCC1` [Ex. 27, 7-chloro-3-methyl-4-((pyrrolidin-1-yl)methyl)-2H-isoquinolin-1-one]: the IC50 in data set [1] was 39 nM.
As to `Cc1[nH]c(=O)c2cc(F)ccc2c1CN1CCCC1` [Ex. 28, 7-Fluoro-3-methyl-4-((pyrrolidin-1-yl)methyl)-2H-isoquinolin-1-one], in data set [1], the IC50 is 45 nM.
In the case of `O=c1[nH]cc(C2CCNCC2)c2ccccc12` [Ex. 31, 4-(piperidin-4-yl)-2H-isoquinolin-1-one hydrochloride], the IC50 in data set [1] stood at 31 nM.
Still for that read-out and setting: then `O=c1[nH]cc(C2CCN(CCO)CC2)c2ccccc12` [Ex. 32, 4-(1-(2-hydroxyethyl)piperidin-4-yl)-2H-isoquinolin-1-one], with 34 nM; and `CN1CCC(c2c[nH]c(=O)c3ccccc23)CC1` [Ex. 33, 4-(1-methylpiperidin-4-yl)-2H-isoquinolin-1-one], with 40 nM.
For `O=c1[nH]cc(C2CCNCC2)c2ccc(Cl)cc12` [Ex. 44, 7-Chloro-4-(piperidin-4-yl)-2H-isoquinolin-1-one hydrochloride], the IC50 in data set [1] was 22 nM.
Consider `O=c1[nH]cc(C2CCNCC2)c2ccc(F)cc12` [Ex. 45, 7-Fluoro-4-(piperidin-4-yl)-2H-isoquinolin-1-one hydrochloride], for which the half-maximal inhibitory concentration (IC50) in data set [1] came to 22 nM.
Consider `CN1CCC(c2c[nH]c(=O)c3cc(Cl)ccc23)CC1` [Ex. 46, 7-Chloro-4-(1-methylpiperidin-4-yl)-2H-isoquinolin-1-one], for which the IC50 in data set [1] stood at 37 nM.
On the same count and under the same terms, the figure for `CN1CCC(c2c[nH]c(=O)c3cc(F)ccc23)CC1` [Ex. 47, 7-Fluoro-4-(1-methylpiperidin-4-yl)-2H-isoquinolin-1-one hydrochloride] is 23 nM.
The same measure, in the same setting: then `O=c1[nH]cc(C2CCN(CCO)CC2)c2ccc(F)cc12` [Ex. 48, 7-Fluoro-4-(1-(2-hydroxyethyl)piperidin-4-yl)-2H-isoquinolin-1-one hydrochloride], with 24 nM; and `CN1CCC(c2nn(C)c3[nH]c(=O)c4ccccc4c23)CC1` [Ex. 209, 1-(1-methylpiperidin-4-yl)-3-methyl-pyrazolo[3,4-c]isoquinolin-5(4H)-one], with 43 nM; and `CCN1CCC(c2nn(C)c3[nH]c(=O)c4ccccc4c23)CC1` [Ex. 210, 1-(1-Ethylpiperidin-4-yl)-3-methyl-pyrazolo[3,4-c]isoquinolin-5(4H)-one], with 25 nM.
The same measure, in the same setting: then `CCN1CCC(c2c[nH]c(=O)c3cc(F)ccc23)CC1` [Ex. 212, 7-Fluoro-4-(1-ethylpiperidin-4-yl)-2H-isoquinolin-1-one], with 47 nM; and `Cn1nc(C2CCNCC2)c2c3ccc(F)cc3c(=O)[nH]c21` [Ex. 221, 7-Fluoro-1-(piperidin-4-yl)-3-methyl-pyrazolo[3,4-c]isoquinolin-5(4H)-one hydrochloride], with 30 nM; and `CN1CCC(c2nn(C)c3[nH]c(=O)c4cc(F)ccc4c23)CC1` [Ex. 222, 7-Fluoro-1-(1-methylpiperidin-4-yl)-3-methyl-pyrazolo[3,4-c]isoquinolin-5(4H)-one], with 44 nM.
On to `CCN1CCC(c2nn(C)c3[nH]c(=O)c4cc(F)ccc4c23)CC1` [Ex. 223, 1-(1-Ethylpiperidin-4-yl)-7-fluoro-3-methyl-pyrazolo[3,4-c]isoquinolin-5(4H)-one], for which the IC50 in data set [1] was 30 nM.
`CCCN1CCC(c2nn(C)c3[nH]c(=O)c4cc(F)ccc4c23)CC1` [Ex. 225, 7-Fluoro-1-(1-propylpiperidin-4-yl)-3-methyl-pyrazolo[3,4-c]isoquinolin-5(4H)-one]: the IC50 in data set [1] came to 42 nM.
Consider `CCCN1CCC(c2nn(C)c3[nH]c(=O)c4ccccc4c23)CC1` [Ex. 226, 1-(1-Propylpiperidin-4-yl)-3-methyl-pyrazolo[3,4-c]isoquinolin-5(4H)-one], for which the 50% inhibitory concentration (IC50) in data set [1] amounted to 47 nM.
`COc1ccc2c(C3CCN(C)CC3)c[nH]c(=O)c2c1` [Example 201, 7-Methoxy-4-(1-methylpiperidin-4-yl)-2H-isoquinolin-1-one] returned a melting point of 224.9 to 226.2 °C.
